Values quoted from earlier work in patent US20070122507A1, “Histone deacetylase and tumor necrosis factor converting enzyme inhibition” (priority 2005, published 2007).

Test system: R6/2 transgenic mouse models
Conditions: HD in R6/2 transgenic mouse models

Compound: CCCC(=O)[O-].[Na+] [sodium butyrate]
- motor deficits: reduces
- neuropathological effects: reduces
- survival: significantly enhances survival
